Source: US20260285850A1, “SUBSTITUTED OXAZOLIDINONES AND IMIDAZOLINONES AS HERBICIDES” (FMC CORPORATION, priority 2023, published 2026)

Experiments:
Type in all cases: in vivo
[1] = system: barnyardgrass (Echinochloa crus-galli); experiment: Test A preemergence soil spray, visual injury rating 0-100; settings: 10 days
Procedure, shortened: (§1)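 Plants were grown in a loam soil-sand blend and treated with test chemical in a non-phytotoxic solvent mixture containing surfactant, either sprayed on soil preemergence or applied postemergence to 2-10 cm plants. After 10 days in a greenhouse, injury was scored visually against untreated controls, 0 meaning no effect and 100 complete control.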

[2] = system: blackgrass (Alopecurus myosuroides); experiment: as above; settings: 10 days
Procedure, shortened: as §1

corn (Zea mays) [3] = experiment: as above; settings: 10 days
Procedure, shortened: as §1

[4] = system: green foxtail (Setaria viridis); experiment: as above; settings: 10 days
Procedure, shortened: as §1

kochia (Bassia scoparia) [5] = experiment: as above; settings: 10 days
Procedure, shortened: as §1

[6] = system: oat, wild (wild oat, Avena fatua); experiment: as above; settings: 10 days
Procedure, shortened: as §1

[7] = system: palmer (palmer amaranth, palmer pigweed, Amaranthus palmeri); experiment: as above; settings: 10 days
Procedure, shortened: as §1

[8] = system: ragweed (common ragweed, Ambrosia artemisiifolia); experiment: as above; settings: 10 days
Procedure, shortened: as §1

[9] = system: ryegrass, Italian (italian ryegrass, Lolium multiflorum); experiment: as above; settings: 10 days
Procedure, shortened: as §1

soybean (Glycine max) [10] = experiment: as above; settings: 10 days
Procedure, shortened: as §1

[11] = system: wheat (Triticum aestivum); experiment: as above; settings: 10 days
Procedure, shortened: as §1

[12] = system: barnyardgrass (Echinochloa crus-galli); experiment: Test A postemergence application, visual injury rating 0-100
Procedure, shortened: as §1

[13] = system: blackgrass (Alopecurus myosuroides); experiment: as above
Procedure, shortened: as §1

corn (Zea mays) [14] = experiment: as above
Procedure, shortened: as §1

[15] = system: galium (catchweed bedstraw, Galium aparine); experiment: as above
Procedure, shortened: as §1

[16] = system: green foxtail (Setaria viridis); experiment: as above
Procedure, shortened: as §1

[17] = system: horseweed (Erigeron canadensis); experiment: as above
Procedure, shortened: as §1

kochia (Bassia scoparia) [18] = experiment: as above
Procedure, shortened: as §1

[19] = system: oat, wild (wild oat, Avena fatua); experiment: as above
Procedure, shortened: as §1

[20] = system: palmer (palmer amaranth, palmer pigweed, Amaranthus palmeri); experiment: as above
Procedure, shortened: as §1

[21] = system: ragweed (common ragweed, Ambrosia artemisiifolia); experiment: as above
Procedure, shortened: as §1

[22] = system: ryegrass, Italian (italian ryegrass, Lolium multiflorum); experiment: as above
Procedure, shortened: as §1

soybean (Glycine max) [23] = experiment: as above
Procedure, shortened: as §1

[24] = system: wheat (Triticum aestivum); experiment: as above
Procedure, shortened: as §1

[25] = system: barnyardgrass (Echinochloa crusgalli); experiment: Test B flooded paddy test, visual plant response rating 0-100; settings: 250 g ai/ha, Flood, applied to paddy water, evaluated after 13 days
Procedure, shortened: (§2)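 Compounds applied to standing paddy water (3 cm above soil, maintained for the test duration) on 2-leaf-stage plants; visual rating vs controls at 13 days, greenhouse.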

[26] = system: ducksalad (Heteranthera limosa); experiment: as above; settings: 250 g ai/ha, Flood, applied to paddy water, evaluated after 13 days
Procedure, shortened: as §2

rice (Oryza sativa) = experiment: as above; settings: 250 g ai/ha, Flood, applied to paddy water, evaluated after 13 days
Procedure, shortened: as §2

[27] = system: sedge, umbrella (small-flower umbrella sedge, Cyperus difformis); experiment: as above; settings: 250 g ai/ha, Flood, applied to paddy water, evaluated after 13 days
Procedure, shortened: as §2

[28] = 62 g ai/ha, 0 = no effect, 100 = complete control
[29] = 62 g ai/ha, postemergence, 10 days, 0 = no effect, 100 = complete control
[30] = Postemergence, 16 g ai/ha, greenhouse 10 days, 0 no effect, 100 complete control

## COC(=O)C1C=CC(NC(=O)C2(C)CN(c3cccc(OC(F)(F)F)c3)C(=O)O2)C1 (mixture of isomers) [Compound 101]
[1]; 16 g ai/ha, 0 to 100 scale
  Barnyardgrass plant response rating: 0
[1]; [28]
  Barnyardgrass plant response rating (0-100): 60
[2]; 16 g ai/ha, 0 to 100 scale
  Blackgrass plant response rating: 0
[2]; [28]
  Blackgrass plant response rating (0-100): 50
Corn (Zea mays) [3]; 16 g ai/ha, 0 to 100 scale
  Corn plant response rating: 0
Corn (Zea mays) [3]; [28]
  Corn plant response rating (0-100): 50
[4]; 16 g ai/ha, 0 to 100 scale
  Foxtail, Green plant response rating: 0
[4]; [28]
  Foxtail, Green plant response rating (0-100): 0
Kochia (Bassia scoparia) [5]; 16 g ai/ha, 0 to 100 scale
  Kochia plant response rating: 0
Kochia (Bassia scoparia) [5]; [28]
  Kochia plant response rating (0-100): 0
[6]; 16 g ai/ha, 0 to 100 scale
  Oat, Wild plant response rating: 0
[6]; [28]
  Oat, Wild plant response rating (0-100): 80
[7]; 16 g ai/ha, 0 to 100 scale
  Pigweed, Palmer plant response rating: 0
[7]; [28]
  Pigweed, Palmer plant response rating (0-100): 0
[8]; 16 g ai/ha, 0 to 100 scale
  Ragweed plant response rating: 0
[8]; [28]
  Ragweed plant response rating (0-100): 10
[9]; 16 g ai/ha, 0 to 100 scale
  Ryegrass, Italian plant response rating: 0
[9]; [28]
  Ryegrass, Italian plant response rating (0-100): 80
Soybean (Glycine max) [10]; 16 g ai/ha, 0 to 100 scale
  Soybean plant response rating: 0
Soybean (Glycine max) [10]; [28]
  Soybean plant response rating (0-100): 0
[11]; 16 g ai/ha, 0 to 100 scale
  Wheat plant response rating: 0
[11]; [28]
  Wheat plant response rating (0-100): 40
[12]; [29]
  Barnyardgrass plant response rating (0-100): 90
[12]; [30]
  Barnyardgrass plant response rating (0 to 100 scale): 60
[13]; [29]
  Blackgrass plant response rating (0-100): 90
[13]; [30]
  Blackgrass plant response rating (0 to 100 scale): 80
Corn (Zea mays) [14]; [29]
  Corn plant response rating (0-100): 90
Corn (Zea mays) [14]; [30]
  Corn plant response rating (0 to 100 scale): 50
[15]; [29]
  Galium plant response rating (0-100): 60
[15]; [30]
  Galium plant response rating (0 to 100 scale): 50
[16]; [29]
  Foxtail, Green plant response rating (0-100): 50
[16]; [30]
  Foxtail, Green plant response rating (0 to 100 scale): 10
[17]; [29]
  Horseweed plant response rating (0-100): 10
[17]; [30]
  Horseweed plant response rating (0 to 100 scale): 10
Kochia (Bassia scoparia) [18]; [29]
  Kochia plant response rating (0-100): 60
Kochia (Bassia scoparia) [18]; [30]
  Kochia plant response rating (0 to 100 scale): 10
[19]; [29]
  Oat, Wild plant response rating (0-100): 90
[19]; [30]
  Oat, Wild plant response rating (0 to 100 scale): 70
[20]; [29]
  Pigweed, Palmer plant response rating (0-100): 10
[20]; [30]
  Pigweed, Palmer plant response rating (0 to 100 scale): 0
[21]; [29]
  Ragweed plant response rating (0-100): 30
[21]; [30]
  Ragweed plant response rating (0 to 100 scale): 0
[22]; [29]
  Ryegrass, Italian plant response rating (0-100): 70
[22]; [30]
  Ryegrass, Italian plant response rating (0 to 100 scale): 50
Soybean (Glycine max) [23]; [29]
  Soybean plant response rating (0-100): 60
Soybean (Glycine max) [23]; [30]
  Soybean plant response rating (0 to 100 scale): 40
[24]; [29]
  Wheat plant response rating (0-100): 80
[24]; [30]
  Wheat plant response rating (0 to 100 scale): 30
[25]
  Plant response rating, Barnyardgrass (0 to 100 scale, 0 is no effect and 100 is complete control): 0
[26]
  Plant response rating, Ducksalad (0 to 100 scale, 0 is no effect and 100 is complete control): 0
Rice (Oryza sativa)
  Plant response rating, Rice (0 to 100 scale, 0 is no effect and 100 is complete control): 0
[27]
  Plant response rating, Sedge, Umbrella (0 to 100 scale, 0 is no effect and 100 is complete control): 0
